Data on 2 compounds can be found in patent publication US10744106B2, “Reversibly protected thiolated electrophilic fatty acids as prodrugs” (University of Pittsburgh—Of the Commonwealth System of …, priority 2016, dated 2020).

Holding throughout (format): cell-based, murine
Assay [1] concerns NAD(P)H dehydrogenase quinone 1 (NQO-1). The experiment in a line: Nrf2-dependent NQO-1 transcription in RAW264.7 cells (qPCR, Taqman). The note with it: for NQO-1 transcription, fold vs controls / NQO-1 mRNA levels, fold: RAW264.7. Here is the method: (§1) Murine macrophage cells (RAW264.7) were treated with the purified thiolated NO2—OA for 4 hours. RNA was extracted using the Trizol method, quantified using nanodrop technology, reversed transcribed into cDNA and then quantitative PCR was performed using Taqman assays. […] The concentration of 50 μM OA-NO2—Sx induced a similar Nrf2 activation profile for HO-1, NQO-1 and GCLM (18.0-, 6.8- and 6.3-fold, respectively) as 5 μM OA-NO2 (23.5-, 7.7-, 6.8-fold for HO-1, NQO1 and GCLM, respectively) at the 4 hour time point.
(§2) Experimental details: In every experiment, RAW264.7 cells were treated with 7.5, 15, 50 and 100 μM OA-NO2—Sx, 5 μM OA-NO2 two concentrations of methanol (MeOH) to match the lowest and highest amount of vehicle (5 and 100 μM) and a media control only. Within each experiment, there were two or three biological replicates per treatment group. After treatment, RNA was extracted using the Trizol method, quantified using nanodrop technology, reversed transcribed into cDNA and then quantitative PCR (qPCR) was performed using Taqman assays. In each qPCR experiment, there were two technical replicates per sample of RNA. The two technical replicates were then averaged for each biological replicate. The bars in the graph represent mean±standard error of the mean (SEM) of the biological replicates.
(§3) Murine macrophage cells (RAW264.7) were treated with 50 μM OA-NO2—Sx, 5 μM OA-NO2, MeOH (the highest amount of vehicle added to RAW cells to match the highest concentration, which is 50 μM for OA-NO2—Sx) and media alone for 4, 8, 16 and 24 hours. RNA was extracted at each time point using the Trizol method, quantified using nanodrop technology, reversed transcribed into cDNA and then quantitative PCR was performed using Taqman assays. […] There was a similar trend for GCLM mRNA levels (FIG. 7) remained elevated for OA-NO2—Sx (30.0-fold) compared to 1.7-fold for 5 μM OA-NO2 treatment at 16 hours.
(§4) Experimental details: Murine macrophage cells (RAW264.7) were treated with 50 μM OA-NO2—Sx, 5 μM OA-NO2, MeOH (the highest amount of vehicle added to RAW cells to match the highest concentration, which is 50 μM for OA-NO2—Sx) and media alone for 4, 8, 16 and 24 hours. RNA was extracted at each time point using the Trizol method, quantified using nanodrop technology, reversed transcribed into cDNA and then quantitative PCR for HO-1, NQO-1 and GCLM (multiplexed with actin) was performed using Taqman assays. Within each independent experiment, every treatment had at least two biological replicates at each time point. The data represents two independent experiments as mean±SEM.

The subject of another assay is heme oxygenase 1 (HO-1). In words: Nrf2-dependent HO-1 transcription in RAW264.7 cells (qPCR, Taqman). The note with it: for HO-1 steady-state mRNA levels, fold vs media and vehicle controls: 8 hours (maximum). Here is the method: as §1, §2, §3, §4
Assay [2] has as its system glutamate-cysteine ligase modifier subunit (GCLM). The experiment in a line: Nrf2-dependent GCLM transcription in RAW264.7 cells (qPCR, Taqman). As to conditions: for GCLM transcription, fold vs controls / GCLM mRNA levels, fold: RAW264.7; for GCLM mRNA levels, fold: 16 hours. How it is done:
as §1, §2, §3, §4

The mark [3] stands for this setting: 7.5, 15, 50 and 100 μM, 4 hours, compared to controls.

For the compound `CCCCCCCCC(SC(CCCCCCCC)C(CCCCCCCC(=O)O)[N+](=O)[O-])C(CCCCCCCC(=O)O)[N+](=O)[O-]` (centres unmarked) [OA-NO2—Sx, thiolated nitro-oleic acid], in assay [1] (50 μM OA-NO2—Sx, 4 hours), the “NQO-1 transcription, fold vs controls” value is listed as 6.8 fold. Besides, the “NQO-1 mRNA levels, fold” value in assay [1] (50 μM, 16 hours) was 701.1 fold. The “Nrf2-dependent transcription of NQO-1, dose response” value in assay [1] (setting [3]) was “dose-dependent increase”. In the assay on heme oxygenase 1 (HO-1) (50 μM OA-NO2—Sx, 4 hours, RAW264.7), the “HO-1 transcription, fold vs controls” value came to 18.0 fold. Also, the “HO-1 steady-state mRNA levels, fold vs media and vehicle controls” value with heme oxygenase 1 (HO-1) (50 μM, RAW264.7) is reported as 116.5 fold. For the same compound, the “HO-1 mRNA levels, fold” value in the assay with heme oxygenase 1 (HO-1) (50 μM, 16 hours, RAW264.7) is on record as 7.5 fold. Moreover, the “HO-1 mRNA levels” value in the assay with heme oxygenase 1 (HO-1) (50 μM, 24 hours, RAW264.7) was “returned to basal levels”. The “Nrf2-dependent transcription of HO-1, dose response” value with heme oxygenase 1 (HO-1) (setting [3]) is recorded as “dose-dependent increase”. Moreover, the “GCLM transcription, fold vs controls” value in assay [2] (50 μM OA-NO2—Sx, 4 hours) is reported as 6.3 fold. In addition, the “GCLM mRNA levels, fold” value in assay [2] (50 μM) was 30.0 fold. Moreover, the “Nrf2-dependent transcription of GCLM, dose response” value in assay [2] (setting [3]) is reported as “dose-dependent increase”.

Consider “Nitro-oleic acid [OA-NO2, reference compound]”, for which, in assay [1] (5 μM OA-NO2, 4 hours), the “NQO-1 transcription, fold vs controls” value is listed as 7.7 fold. For the same compound, the “NQO-1 mRNA levels, fold” value was 115.0 fold in assay [1] (5 μM, 8 hours) and 98.9 fold in assay [1] (5 μM, 16 hours). The “HO-1 transcription, fold vs controls” value with heme oxygenase 1 (HO-1) (5 μM OA-NO2, 4 hours, RAW264.7) amounted to 23.5 fold. The “HO-1 steady-state mRNA levels, fold vs media and vehicle controls” value in the assay with heme oxygenase 1 (HO-1) (5 μM, RAW264.7) is given as 30.7 fold. In addition, the “HO-1 mRNA levels” value with heme oxygenase 1 (HO-1) (5 μM, 16 hours, RAW264.7) is “returned to baseline”; with heme oxygenase 1 (HO-1) (5 μM, 24 hours, RAW264.7) it was “returned to basal levels”. In addition, the “GCLM transcription, fold vs controls” value in assay [2] (5 μM OA-NO2, 4 hours) came to 6.8 fold. In addition, in assay [2] (5 μM), the “GCLM mRNA levels, fold” value is listed as 1.7 fold.
